Experimental data taken from the NIST ThermoML archive (doi:10.1021/je034107o).
± gives the expanded uncertainty stated by the source.

Conditions: Liquid

| Compound | vapor or sublimation pressure (498.15 K) [kPa] | vapor or sublimation pressure (523.15 K) [kPa] | vapor or sublimation pressure (553.15 K) [kPa] | vapor or sublimation pressure (583.15 K) [kPa] | vapor or sublimation pressure (613.15 K) [kPa] | vapor or sublimation pressure (638.15 K) [kPa] | vapor or sublimation pressure (653.15 K) [kPa] |
| --- | --- | --- | --- | --- | --- | --- | --- |
| CCc1ccccc1 [ethylbenzene] | 681 ± 37 | 1027 ± 54 | 1601 ± 83 | 2387 ± 120 | 3451 ± 180 | – | – |
| c1ccc2ncccc2c1 [quinoline] | – | 135 ± 8 | 245 ± 13 | 416 ± 22 | 668 ± 35 | 955 ± 49 | 1166 ± 60 |
